Measured values published in patent US5432274A, “Redox dye and method of preparation thereof using 2-hydroxypropyl-β-cyclodextrin and 1,1'-dimethylferrocene” (National Research Council of Canada, priority 1993, dated 1995).

Key:
glucose oxidase = molecular target: T1, glucose oxidase (Aspergillus niger, UniProt P13006); assay: Kinetic studies of the blue dye with oxidases (Michaelis-Menten constant); assay type: biochemical; settings: compared with lactate oxidase and xanthine oxidase
T1 construct: purchased Sigma (St. Louis, Mo.)
T1 sequence (P13006 17-605): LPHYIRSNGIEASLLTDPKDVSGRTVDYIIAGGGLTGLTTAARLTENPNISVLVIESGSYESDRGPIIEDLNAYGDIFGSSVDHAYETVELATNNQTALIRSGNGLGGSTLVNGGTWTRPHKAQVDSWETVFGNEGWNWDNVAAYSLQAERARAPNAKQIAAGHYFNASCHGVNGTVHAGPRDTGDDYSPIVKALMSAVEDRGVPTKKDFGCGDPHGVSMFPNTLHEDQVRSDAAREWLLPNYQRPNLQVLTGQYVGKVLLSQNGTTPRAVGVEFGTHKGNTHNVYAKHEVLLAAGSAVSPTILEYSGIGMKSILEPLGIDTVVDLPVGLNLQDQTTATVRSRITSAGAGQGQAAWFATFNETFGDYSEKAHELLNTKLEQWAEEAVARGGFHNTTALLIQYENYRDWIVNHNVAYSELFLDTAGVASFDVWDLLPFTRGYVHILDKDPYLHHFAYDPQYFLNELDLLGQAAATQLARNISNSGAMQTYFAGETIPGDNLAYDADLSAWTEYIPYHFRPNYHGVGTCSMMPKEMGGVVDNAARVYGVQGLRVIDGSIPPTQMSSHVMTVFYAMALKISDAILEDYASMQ

[1] = water; cited from earlier work
[2] = Sensitivity of the dye / its absorption characteristics to pH variation; assay type: physicochemical; settings: products of chemical oxidation by ceric sulfate or iodine/KI
From the text: It was also noted that the DMFeCp2 -hp-β-CD complex stored at room temperature began to turn green, indicating a preference toward the oxidized state. As also reported, 15 the redox potential of DMFeCp2 is lowest (100 mV) among several known ferrocene-related compounds and this may contribute to the stability of DMFeCp2^+ in comparison to FeCp2^+. Both forms of ferricinium were insensitive to pH variation from 2-11. This characteristic is of advantage since the assay can be performed regardless of some fluctuation in pH and is applicable for a variety of oxidases with different pH optima. Due to the instability of the concentrated FeCp2^+, further studies focused on the electrochemically produced DMFeCp2^+.
Both FeCp2 and DMFeCp2 were oxidized by ceric sulfate or iodine/KI to FeCp2 H^+, (ferrocenonium) and DMFeCp2 H^+ (1,1'-dimethylferrocenonium), respectively. The reaction was almost instantaneous and the spectra of these two cation species were identical to those of ferricinium and 1,1'-dimethylferricinium. […] Such results were not completely unexpected since in strong acid media ferrocene was reported to undergo extensive protonation on the metal atom.

[3] = prepared with soluble bilirubin oxidase, stored at 4° C.
Method: During the time course of oxidation, the current decreased and the solution turned from yellow to green and finally to dark blue. The development of the blue color was monitored at the absorption maximum for FeCp2^+ at 620 nm or DMFeCp2^+ at 650 nM (FIG. 2 A, B).
The enzyme was destroyed by lowering the pH to 2.5 and after 2 min incubation, the pH was readjusted to 6.8. […] It should be noted that the absorption characteristics of the blue dye were not affected by a pH variation from 2.5 to 11.

Compound	solubility of the cyclodextrin in aqueous solutions [1]	stability against changes in pH [2]	also measured
1,1'-dimethylferricinium [DMFeCp2^+]			Michaelis-Menten constant for the blue dye (glucose oxidase): noticeably higher
2-hydroxypropyl-β-cyclodextrin [Hp-β-CD]	50 % w/v		
CC1C=CC=C1.C[c-]1cccc1.[Fe+2] [DMFeCp2 H^+, 1,1'-dimethylferrocenonium]		not stable against changes in pH	
OC[C@H]1O[C@@H]2O[C@H]3[C@H](O)[C@@H](O)[C@@H](O[C@H]4[C@H](O)[C@@H](O)[C@@H](O[C@H]5[C@H](O)[C@@H](O)[C@@H](O[C@H]6[C@H](O)[C@@H](O)[C@@H](O[C@H]7[C@H](O)[C@@H](O)[C@@H](O[C@H]1[C@H](O)[C@H]2O)O[C@@H]7CO)O[C@@H]6CO)O[C@@H]5CO)O[C@@H]4CO)O[C@@H]3CO [α-CD, α-cyclodextrin]	12-16 % w/v		
ferricinium [FeCp2^+]			time stable [3]: 2 months
ferrocenonium [FeCp2 H^+]		not stable against changes in pH	
